{"source": "ChEMBL document CHEMBL2385034", "about": "“Discovery, synthesis and in combo studies of a tetrazole analogue of clofibric acid as a potent hypoglycemic agent” (2013)", "key": {"[1]": {"organism": "Rattus norvegicus", "experiment": "Hypoglycemic activity in STZ-nicotinamide-induced Wistar rat diabetic model after 1 to 7 hrs", "assay_type": "functional, organism-based"}, "[2]": {"biological_target": "11-beta-hydroxysteroid dehydrogenase 1 (Homo sapiens) (UniProt P28845)", "sequence (P28845 whole entry, looked up)": "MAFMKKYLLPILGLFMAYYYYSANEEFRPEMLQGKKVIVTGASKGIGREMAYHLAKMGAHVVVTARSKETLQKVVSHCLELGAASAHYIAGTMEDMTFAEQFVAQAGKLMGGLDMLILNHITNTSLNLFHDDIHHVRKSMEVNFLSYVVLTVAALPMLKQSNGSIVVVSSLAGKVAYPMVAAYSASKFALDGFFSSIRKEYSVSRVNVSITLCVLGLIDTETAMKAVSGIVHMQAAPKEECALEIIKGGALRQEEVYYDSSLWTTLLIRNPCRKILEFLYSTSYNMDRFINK", "experiment": "Inhibition of full-length human 11beta-HSD1 expressed in HEK293 cells at 10 uM after 2 hrs by scintillation proximity assay relative to control", "assay_type": "cell-based"}, "[3]": {"system": "Rattus norvegicus", "experiment": "Hypoglycemic activity in STZ-nicotinamide-induced Wistar rat diabetic model at 50 mg/kg, ig after 1 to 7 hrs relative to control", "assay_type": "functional", "conditions": "route intragastric"}, "[4]": {"biological_target": "11-beta-hydroxysteroid dehydrogenase 1 (Homo sapiens) (UniProt P28845)", "experiment": "Inhibition of full-length human 11beta-HSD1 expressed in HEK293 cells at 10 uM after 2 hrs by scintillation proximity assay relative to clofibric acid", "assay_type": "cell-based"}, "[5]": {"biological_target": "11-beta-hydroxysteroid dehydrogenase 1 (Homo sapiens) (UniProt P28845)", "experiment": "Inhibition of full-length human 11beta-HSD1 expressed in HEK293 cells at 10 uM after 2 hrs by scintillation proximity assay relative to clofibrate", "assay_type": "cell-based"}, "[6]": {"system": "Rattus norvegicus", "experiment": "Hypoglycemic activity in STZ-nicotinamide-induced Wistar rat diabetic model at 5 mg/kg, po after 1 to 7 hrs", "assay_type": "functional, organism-based", "parameters": "dose 5 mg/kg"}}, "note": "Activity calls are given as the source filed them. The calls are words filed in the database; no cut-off is given here."}
{"smiles": "CC(C)(Oc1ccc(Cl)cc1)C(=O)O", "values": [{"measurement": "Activity", "setting": "[1]", "value": "inactive"}, {"measurement": "inhibition", "setting": "[2]", "value": 19.1, "unit": "%"}]}
{"smiles": "CC(C)(Oc1ccc(Cl)cc1)C(=O)Nc1nnn[nH]1", "values": [{"measurement": "Activity", "setting": "[3]", "value": 16, "unit": "%"}, {"measurement": "fold change (FC)", "setting": "[4]", "value": 2.5}, {"measurement": "inhibition", "setting": "[2]", "value": 51.2, "unit": "%"}, {"measurement": "fold change (FC)", "setting": "[5]", "value": 2.5}]}
{"smiles": "COc1ccc(Cl)cc1C(=O)NCCc1ccc(S(=O)(=O)NC(=O)NC2CCCCC2)cc1", "values": [{"measurement": "Activity", "setting": "[6]", "value": "Active"}]}
{"smiles": "CC1(C)[C@@H](OC(=O)CCC(=O)O)CC[C@]2(C)[C@H]3C(=O)C=C4[C@@H]5C[C@@](C)(C(=O)O)CC[C@]5(C)CC[C@@]4(C)[C@]3(C)CC[C@@H]12", "values": [{"measurement": "inhibition", "setting": "[2]", "value": 78.3, "unit": "%"}]}
{"smiles": "CCOC(=O)C(C)(C)Oc1ccc(Cl)cc1", "values": [{"measurement": "inhibition", "setting": "[2]", "value": 18.1, "unit": "%"}]}
